Test results: US10105357B2, “Indication of antibiotic drugs for preparation of cancer inhibition pharmaceutical composition” (LAUNX BIOMEDICAL CO., LTD., priority 2014, dated 2018)
Like-named read-outs stand apart in the source and are kept apart here.

Columns and labels:
Format in all cases: cell-based, human
cancer cell lines = test: Cell viability analysis (WST-1) on cancer cell lines; conditions: drug 10 μM, 72 hours, WST-1; Table 3
[1] = system: HI650 (Lung Adenocarcinoma); test: Cell viability analysis, lung cancer HI650; conditions: Homo sapiens
[2] = system: A549 (Lung Adenocarcinoma); test: Cell viability analysis, lung cancer A549; conditions: Homo sapiens
[3] = system: AGS (Gastric Adenocarcinoma); test: Cell viability analysis, gastric cancer AGS; conditions: Homo sapiens
[4] = system: MKN-45 (Gastric Adenocarcinoma); test: Cell viability analysis, gastric cancer MKN-45; conditions: Homo sapiens
[5] = system: HepG2 (Hepatocellular Carcinoma); test: Cell viability analysis, hepatic cancer HepG2; conditions: Homo sapiens
[6] = system: LoVo (Colorectal Adenocarcinoma); test: Cell viability analysis, colon cancer LoVo; conditions: Homo sapiens, LoVo
[7] = system: A375 (Amelanotic Melanoma); test: Cell viability analysis, skin cancer A375; conditions: Homo sapiens
[8] = system: HeLa (Cervix Adenocarcinoma); test: Cell viability analysis, cervical cancer HeLa; conditions: Homo sapiens, HeLa
[9] = system: PC3 (p53−) (Prostate Adenocarcinoma); test: Cell viability analysis, prostate cancer PC3; conditions: Homo sapiens
[10] = system: TSGH-8301 (Urinary Bladder Carcinoma); test: Cell viability analysis, bladder cancer TSGH-8301; conditions: Homo sapiens
[11] = system: MCF7 (Mammary Gland, Adenocarcinoma); test: Cell viability analysis, breast cancer MCF7; conditions: Homo sapiens
[12] = system: HL-60 (Acute Promyelocytic Leukemia); test: Cell viability analysis, leukemia HL-60; conditions: Homo sapiens
[13] = NCI-H1650, 72 h, read-out: cell viability (survival rate), H1650, drug 10 μM, 72 hours, WST-1, OD450 nm
[14] = A549, 72 h, read-out: cell viability (survival rate), A549, drug 10 μM, 72 hours, WST-1, OD450 nm
[15] = 72 h, read-out: cell viability (survival rate), AGS, drug 10 μM, 72 hours, WST-1, OD450 nm
[16] = MKN-45, 72 h, read-out: cell viability (survival rate), MKN-45, drug 10 μM, 72 hours, WST-1, OD450 nm
[17] = HepG2, 72 h, read-out: cell viability (survival rate), HepG2, drug 10 μM, 72 hours, WST-1, OD450 nm
[18] = 72 h, read-out: cell viability (survival rate), LoVo, drug 10 μM, 72 hours, WST-1, OD450 nm
[19] = A-375, 72 h, read-out: cell viability (survival rate), A375, drug 10 μM, 72 hours, WST-1, OD450 nm
[20] = 72 h, read-out: cell viability (survival rate), HeLa, drug 10 μM, 72 hours, WST-1, OD450 nm
[21] = 72 h, read-out: cell viability (survival rate), PC3, drug 10 μM, 72 hours, WST-1, OD450 nm
[22] = 72 h, read-out: cell viability (survival rate), TSGH, drug 10 μM, 72 hours, WST-1, OD450 nm
[23] = MCF7, 72 h, read-out: cell viability (survival rate), MCF7, drug 10 μM, 72 hours, WST-1, OD450 nm
[24] = HL-60, 72 h, read-out: cell viability (survival rate), HL-60, drug 10 μM, 72 hours, WST-1, OD450 nm

SMILES | inhibition effect on different cancer cell lines (cancer cell lines) | viability at 10 µM [1, 13] [%] | viability at 10 µM [2, 14] [%] | viability at 10 µM [3, 15] [%] | viability at 10 µM [4, 16] [%] | viability at 10 µM [5, 17] [%] | viability at 10 µM [6, 18] [%] | viability at 10 µM [7, 19] [%] | viability at 10 µM [8, 20] [%] | viability at 10 µM [9, 21] [%] | viability at 10 µM [10, 22] [%] | viability at 10 µM [11, 23] [%] | viability at 10 µM [12, 24] [%] | further results
Nc1nc(=O)n([C@@H]2CS[C@H](CO)O2)cc1F [Emtricitabine (Emtriva), Emtricitabine] | significant inhibition effect | 61 | 86.9 | 48 | 62.8 | 110 | 82.6 | 84 | 79.6 | 77.1 | 85.3 | 74 | 119 | –
CC(=O)S[C@@H]1CC2=CC(=O)CC[C@]2(C)[C@H]2CC[C@@]3(C)[C@@H](CC[C@@]34CCC(=O)O4)[C@H]12 [Spironolactone] | significant inhibition effect | 79.8 | 67.5 | 96.6 | 117 | 90.5 | 67.2 | 61 | 118 | 88.5 | 90.1 | 87.7 | 57.2 | –
Nc1ccc(S(=O)(=O)Nc2nccs2)cc1 [Sulfathiazole] | significant inhibition effect | 38.8 | 47.2 | 54.6 | 30.8 | 65.7 | 78.1 | 30.8 | 47.7 | 94.9 | 54.5 | 60.1 | 96.7 | –
Clc1ccc(C(Cn2ccnc2)OCc2c(Cl)cccc2Cl)c(Cl)c1 (stereo not shown) [Isoconazole nitrate (Travogen), Isoconazole nitrate] | significant inhibition effect | – | – | – | – | – | – | – | – | – | – | – | – | viability at 10 µM ([1]; NCI-H1650, drug 10 μM, 72 hours, WST-1, OD450 nm, read-out: cell viability (survival rate), H1650): 102%; viability at 10 µM ([2]; A549, drug 10 μM, 72 hours, WST-1, OD450 nm, read-out: cell viability (survival rate), A549): 91.7%; viability at 10 µM ([3]; drug 10 μM, 72 hours, WST-1, OD450 nm, read-out: cell viability (survival rate), AGS): 74.8%; viability at 10 µM ([4]; MKN-45, drug 10 μM, 72 hours, WST-1, OD450 nm, read-out: cell viability (survival rate), MKN-45): 126%; viability at 10 µM ([5]; HepG2, drug 10 μM, 72 hours, WST-1, OD450 nm, read-out: cell viability (survival rate), HepG2): 99.4%; viability at 10 µM ([6]; drug 10 μM, 72 hours, WST-1, OD450 nm, read-out: cell viability (survival rate), LoVo): 102%; viability at 10 µM ([7]; A-375, drug 10 μM, 72 hours, WST-1, OD450 nm, read-out: cell viability (survival rate), A375): 95%; viability at 10 µM ([8]; drug 10 μM, 72 hours, WST-1, OD450 nm, read-out: cell viability (survival rate), HeLa): 165%; viability at 10 µM ([9]; drug 10 μM, 72 hours, WST-1, OD450 nm, read-out: cell viability (survival rate), PC3): 82.5%; viability at 10 µM ([10]; drug 10 μM, 72 hours, WST-1, OD450 nm, read-out: cell viability (survival rate), TSGH): 88.2%; viability at 10 µM ([11]; MCF7, drug 10 μM, 72 hours, WST-1, OD450 nm, read-out: cell viability (survival rate), MCF7): 95.1%; viability at 10 µM ([12]; HL-60, drug 10 μM, 72 hours, WST-1, OD450 nm, read-out: cell viability (survival rate), HL-60): 49.2%
CCOC(=O)n1ccn(C)c1=S [Carbimazole] | significant inhibition effect | 80.9 | 73.9 | 114 | 131 | 97.2 | 75 | 65.1 | 90.3 | 95.6 | 117 | 102 | 80.1 | –
COc1cc(Cc2cnc(N)nc2N)cc(OC)c1OC [Trimethoprim] | significant inhibition effect | 108 | 125 | 97.7 | 73.6 | 102 | 98.7 | 83.6 | 89 | 151 | 92.4 | 104 | 96.8 | –
C[C@@H]1CN(c2c(F)c(N)c3c(=O)c(C(=O)O)cn(C4CC4)c3c2F)C[C@H](C)N1 [Sparfloxacin] | significant inhibition effect | 88.5 | 86.5 | 79.9 | 57.5 | 97.6 | 97 | 82.6 | 88.3 | 50.1 | 68.1 | 56.3 | 99.3 | –
C[C@@H]1CN(c2c(F)c(F)c3c(=O)c(C(=O)O)cn(C4CC4)c3c2F)C[C@H](C)N1 [Orbifloxacin] | significant inhibition effect | – | – | – | – | – | 75.4 | – | – | – | – | – | – | viability at 10 µM ([1]; NCI-H1650, 72 h, drug 10 μM, 72 hours, WST-1, OD450 nm, read-out: cell viability (survival rate), H1650): 63.7%; viability at 10 µM ([2]; A549, 72 h, drug 10 μM, 72 hours, WST-1, OD450 nm, read-out: cell viability (survival rate), A549): 44.2%; viability at 10 µM ([3]; 72 h, drug 10 μM, 72 hours, WST-1, OD450 nm, read-out: cell viability (survival rate), AGS): 84.5%; viability at 10 µM ([4]; MKN-45, 72 h, drug 10 μM, 72 hours, WST-1, OD450 nm, read-out: cell viability (survival rate), MKN-45): 44.1%; viability at 10 µM ([5]; HepG2, 72 h, drug 10 μM, 72 hours, WST-1, OD450 nm, read-out: cell viability (survival rate), HepG2): 84.2%; viability at 10 µM ([7]; A-375, 72 h, drug 10 μM, 72 hours, WST-1, OD450 nm, read-out: cell viability (survival rate), A375): 55.6%; viability at 10 µM ([8]; 72 h, drug 10 μM, 72 hours, WST-1, OD450 nm, read-out: cell viability (survival rate), HeLa): 66.8%; viability at 10 µM ([9]; 72 h, drug 10 μM, 72 hours, WST-1, OD450 nm, read-out: cell viability (survival rate), PC3): 51.1%; viability at 10 µM ([10]; 72 h, drug 10 μM, 72 hours, WST-1, OD450 nm, read-out: cell viability (survival rate), TSGH): 44.3%; viability at 10 µM ([11]; MCF7, 72 h, drug 10 μM, 72 hours, WST-1, OD450 nm, read-out: cell viability (survival rate), MCF7): 33.3%; viability at 10 µM ([12]; HL-60, 72 h, drug 10 μM, 72 hours, WST-1, OD450 nm, read-out: cell viability (survival rate), HL-60): 92.3%
c1ccc(-c2ccc(C(c3ccccc3)n3ccnc3)cc2)cc1 (stereo not shown) [Bifonazole] | significant inhibition effect | 55.9 | 79.3 | 64.3 | 50.5 | 109 | 81.1 | 94.9 | 67.2 | 78.2 | 82.1 | 73.3 | 119 | –
Clc1ccc(CCC(Cn2ccnc2)Sc2c(Cl)cccc2Cl)cc1 (stereo not shown) [Butoconazole nitrate] | significant inhibition effect | 78.2 | 89.6 | 78.7 | 48.7 | 114 | 112 | 102 | 131 | 57.1 | 86 | 72.9 | 41.3 | –
